According to patent publication US5162336A, “Tetrahydro-pyrido-indoles as cholecystokinin and gastrin antagonists” (Rhone-Poulenc Rorer Pharmaceuticals Inc., priority 1990, dated 1992):

Biological target: T1, CCK-A receptor (Rattus norvegicus, UniProt P30551)
T1 construct: from tissue; host or cells: pancreas membranes of Sprague-Dawley rat
T1 sequence (P30551 1-444): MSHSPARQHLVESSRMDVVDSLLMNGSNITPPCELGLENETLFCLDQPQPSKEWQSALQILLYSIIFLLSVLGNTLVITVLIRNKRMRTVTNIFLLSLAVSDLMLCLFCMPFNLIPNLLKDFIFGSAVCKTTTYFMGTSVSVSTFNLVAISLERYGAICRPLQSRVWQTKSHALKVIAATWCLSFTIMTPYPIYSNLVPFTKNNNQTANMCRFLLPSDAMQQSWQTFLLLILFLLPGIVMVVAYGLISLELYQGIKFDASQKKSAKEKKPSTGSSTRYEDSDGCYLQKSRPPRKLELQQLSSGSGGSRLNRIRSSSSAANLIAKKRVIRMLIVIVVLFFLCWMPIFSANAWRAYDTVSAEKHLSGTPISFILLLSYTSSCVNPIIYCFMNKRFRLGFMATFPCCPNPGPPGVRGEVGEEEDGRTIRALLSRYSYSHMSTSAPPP
Experiment: CCK-A receptor binding assay (displacement of 3H-L-364,718 from rat pancreas membranes)
Set-up: species or system Sprague-Dawley rat
Settings: 3H-L-364,718 0.2 nM, 37° C., 30 min, read-out: In vitro Binding Data IC50 CCK
Protocol: Washer Buffer (for use with Brandel Cell Harvester):
30 liters of 50 mM Tris, ph 7.7: Dissolve 181.7 g. Tris base in 4 1. deionized water at room temperature. Adjust pH to 7.7 with 6 N HCl and Q.S. to 30 1.
50 mM Tris-Cl, 5 mM MgCl2, 5 mM dithio-thretiol, 0.14 mg/ml bacitracin, and 2 mg/ml bovine serum albumin.
1 liter of 5X stock buffer:
30.28 g. Tris base per 800 ml D.I. water 5.09 g. MgCl2 6 H2 O, pH to 7.7 at room temperature with 6N HCl and Q.S. 1 liter, store at 4° C.
250 ml working buffer kept on ice:
50 ml of 5X stock buffer 0.1928 g. dithiothretiol (5 mM), 35 mg bacitracin (0.14 mg/ml), and 0.5 g. BSA (2mg/ml).
Unlabeled L-364,718(nonpeptide ligand):
Unlabeled L-364,718 (300 nM final concentration) is used to define nonspecific binding. A 3 mM solution is made in absolute ethanol and stored in a scintillation vial at -70° C. Aliquots are diluted 100-fold in the assay.
A Sprague-Dawley rat is sacrificed by asphyxiation with carbon dioxide and the pancreas removed. The tissue is immersed in cold wash buffer and carefully trimmed of fat, connective tissue, blood vessels, blotted and weighed. The tissue is homogenized in a Sorvall SS-34 centrifuge tube in 50 volumes of wash buffer using a Polytron at setting 7 for 15 seconds. The tissue is centrifuged (Sorvall SS-34) at 19,000 rpm for 10 min. The supernatant is poured off and the pellet resuspended in sufficient buffer to obtain a contraction of 40 mg tissue wet weight/ml. Separate aliquots (2,3ml) are placed in each of 8 centrifuge tubes and centrifuged as before. The supernatants are poured off and the pellets stored at -70° C. Stored pellets are sufficient for the assay of 160 tubes and are stable for 1-2 months.
During the assay the stored membranes are resuspended in 40 ml of assay buffer by scraping the pellet off the wall of the centrifuge tube and washing it into a teflon-glass homogenizer. Membranes are resuspended by 5 passes with the teflon pestle and the membranes stored on ice until ready for use.
Preparation of Compounds:
Compounds are prepared in DMSO (dimethyl sulfoxide) or in assay buffer. The majority of structures active as CCK antagonists generally require DMSO for complete solubility. Approximately 2-3 mg of compound is weighed directly into a 13×100 mm test tube and sufficient DMSO added to obtain a working stock solution at a concentration 100 fold greater than the highest concentration being tested in the assay. A total of 10 μl of each concentration of drug is added into a final volume of 1 ml to yield a 100 fold dilution of the, working stock solution. Control binding tubes ("totals and nonspecifics") are also treated with 10 μl DMSO.
^3 H-L-364,718 is obtained from New England Nuclear (Cat. #971) and is used as supplied. The final assay concentration of ^3 H-L-364,718 in assay buffer should be 0.2 nM in a final assay volume of 1 ml. ^3 H-L-364,718 (0.2 pmol) is added into the assay in a volume of 25 μl (8 nM working stock solution). The required dilution (usually>1000 fold) is obtained by dividing the working stock concentration into the concentration of the specific lot.
Samples are prepared in triplicate and a "total" (buffer addition) and "nonspecific" (300 nM unlabeled L-364,718) set of tubes included in each set of 24 tubes. The remaining 6 sets of triplicates are used either for screening or IC50 determinations. The order of addition is drugs-DMSO, buffer, unlabeled L-364,718, ^3 H-L-364,718, and to start the assay, membranes.
While tubes are incubating a shaking water bath at 37° C. for 30 min Brandel deposit/dispense filters are presoaked in wash buffer. Following the end of the incubation, sets of 24 tubes are rapidly washed with assay buffer as follows. Assay buffer is added to the incubation tubes to the height of the uppermost cross support in the standard Brandel test tube rack and the contents immediately aspirated. This process is repeated twice more, the filter removed, marked and the next set of 24 tubes processed. […]

SMILES	IC50
CC(C)C[C@H](NC(=O)[C@H]1Cc2c([nH]c3ccccc23)CN1C(=O)Nc1ccc(Cl)c(Cl)c1)C(=O)NCC(N)=O [Example 28]	9 µM
Cc1cccc(NC(=O)N2Cc3[nH]c4ccccc4c3C[C@@H]2C(=O)N[C@@H](CC(C)C)C(N)=O)c1 [Example 39, N-[(3R)-2-(3-methylphenylcarbamoyl)-1,2,3,4-tetrahydro-9H-pyrido[3,4-b]indole-3-carboxy]-L-leucinamide]	> 100 µM
CC(C)C[C@H](NC(=O)[C@H]1Cc2c([nH]c3ccccc23)CN1)C(=O)N[C@@H](CC(=O)OCc1ccccc1)C(N)=O [Example 40]	41 µM
Cc1cccc(NC(=O)N2Cc3[nH]c4ccccc4c3C[C@@H]2C(=O)N[C@@H](CC(C)C)C(=O)N[C@@H](Cc2ccccc2)C(N)=O)c1 [Example 42]	4 µM
CCOC(=O)c1ccc(NC(=O)[C@H]2Cc3c([nH]c4ccccc34)CN2C(=O)Nc2cccc(C)c2)cc1 [Example 43]	37 µM
Cc1cccc(NC(=O)N2Cc3[nH]c4ccccc4c3C[C@@H]2C(=O)N2CCC[C@H]2C(=O)N[C@@H](CC(=O)O)C(N)=O)c1 [Example 44, N-[(3R)-2-(3-methylphenylcarbamoyl)-1,2,3,4-tetrahydro-9H-pyrido[3,4-b]indole-3-carboxyl]-L-prolyl-L-aspartic acid amide]	98 µM
Cc1cccc(NC(=O)N2Cc3[nH]c4ccccc4c3C[C@@H]2C(=O)N[C@H](CC(C)C)C(=O)N[C@H](CC(=O)O)C(N)=O)c1 [Example 45]	78 µM
CCCCCN(CCCCC)C(=O)[C@H](CC(=O)O)NC(=O)[C@H]1Cc2c([nH]c3ccccc23)CN1C(=O)Nc1cccc(C)c1 [Example 46, N-[(3R)-2-(3-methylphenylcarbamoyl)-1,2,3,4-tetrahydro-9H-pyrido[3,4-b]indole-3-carboxyl]-L-aspartic acid dipentyl amide]	3.9 µM
Cc1cccc(NC(=O)N2Cc3[nH]c4ccccc4c3C[C@H]2C(=O)N[C@H](CC(C)C)C(=O)N[C@H](CC(=O)O)C(N)=O)c1 [Example 49]	35 µM
Cc1cccc(NC(=O)N2Cc3[nH]c4ccccc4c3C[C@@H]2C(=O)N[C@@H](CC(C)C)C(=O)N[C@@H](CC(N)=O)C(=O)O)c1 [Example 50]	92 µM
Cc1cccc(NC(=O)N2Cc3[nH]c4ccccc4c3C[C@@H]2C(=O)N[C@@H](CC(C)C)C(=O)N[C@H](CC(=O)O)C(N)=O)c1 [Example 51, N-[(3R)-2-(3-methylphenylcarbamoyl)-1,2,3,4-tetrahydro-9H-pyrido[3,4-b]indole-3-carboxyl]-L-leucyl-D-aspartic acid amide]	100 µM
Cc1cccc(NC(=O)N2Cc3[nH]c4ccccc4c3C[C@H]2C(=O)N[C@H](CC(C)C)C(=O)N[C@@H](CC(=O)O)C(N)=O)c1 [Example 52]	53 µM
Cc1cccc(NC(=O)N2Cc3[nH]c4ccccc4c3C[C@@H]2C(=O)N(C)[C@@H](CC(C)C)C(=O)N[C@@H](CC(=O)O)C(N)=O)c1 [Example 53, N-[(3R)-2-(3-methylphenylcarbamoyl)-1,2,3,4-tetrahydro-9H-pyrido[3,4-b]indole-3-carboxyl]N'-methyl-L-leucine-L-aspartic acid amide]	29 µM
Cc1cccc(C(=O)N2Cc3[nH]c4ccccc4c3C[C@@H]2C(=O)N[C@@H](CC(C)C)C(=O)N[C@@H](CC(=O)O)C(N)=O)c1 [Example 54]	> 100 µM
CC(C)C[C@H](NC(=O)[C@H]1Cc2c([nH]c3ccccc23)CN1C(=O)Nc1ccc(Cl)cc1)C(=O)N[C@@H](CC(=O)O)C(N)=O [Example 55, N-[(3R)-2-(4-chlorophenylcarbamoyl)-1,2,3,4-tetrahydro-9H-pyrido[3,4-b]indole-3-carboxyl]-L-leucyl-L-asartic acid amide]	48 µM
Cc1cccc(NC(=O)N2Cc3[nH]c4ccccc4c3C[C@@H]2C(=O)NCC(=O)N[C@@H](CC(=O)O)C(N)=O)c1 [Example 56, N-[(3R)-2-(3-methylphenylcarbamoyl)-1,2,3,4-tetrahydro-9H-pyido[3,4-b]indole-3-carboxyl]glycyl-L-aspartic acid amide]	34 µM
Cc1cccc(NC(=O)N2Cc3[nH]c4ccccc4c3C[C@@H]2C(=O)N[C@H](CC(C)C)C(=O)N[C@@H](CC(=O)O)C(N)=O)c1 [Example 57, N-[(3R)-2-(3-methylphenylcarbamoyl)-1,2,3,4-tetrahydro-9H-pyrido[3,4-b]indole-3-carboxyl]-D-leucyl-L-aspartic acid amide]	100 µM
Cc1cccc(NC(=O)N2Cc3[nH]c4ccccc4c3C[C@@H]2C(=O)N[C@@H](C)C(=O)N[C@@H](CC(=O)O)C(N)=O)c1 [Example 58]	65 µM
CC(C)C[C@H](NC(=O)[C@H]1Cc2c([nH]c3ccccc23)CN1C(=O)Nc1cc(Cl)cc(Cl)c1)C(=O)N[C@@H](CC(=O)O)C(N)=O [Example 59, N-[(3R)-2-(3,5-dichlorophenylcarbamoyl)-1,2,3,4-tetrahydro-9H-pyrido[3,4-b]indole-3-carboxyl]-L-leucyl-L-aspartic acid amide]	34 µM
Cc1cc(C)cc(NC(=O)N2Cc3[nH]c4ccccc4c3C[C@@H]2C(=O)N[C@@H](CC(C)C)C(=O)N[C@@H](CC(=O)O)C(N)=O)c1 [Example 60, N-[(3R)-2-(3,5-dimethylphenylcarbamoyl)-1,2,3,4-tetrahydro-9H-pyrido[3,4-b]indole-3-carboxyl]-L-leucyl-L-aspartic acid amide]	65 µM
COc1cccc(NC(=O)N2Cc3[nH]c4ccccc4c3C[C@@H]2C(=O)N[C@@H](CC(C)C)C(=O)N[C@@H](CC(=O)O)C(N)=O)c1 [Example 61]	> 100 µM
CC(C)C[C@H](NC(=O)[C@H]1Cc2c([nH]c3ccccc23)CN1C(=O)Nc1ccc2ccccc2c1)C(=O)N[C@@H](CC(=O)O)C(N)=O [Example 62]	9.3 µM
CC(C)C[C@H](NC(=O)[C@H]1Cc2c([nH]c3ccccc23)CN1C(=O)Nc1cccc(C(F)(F)F)c1)C(=O)N[C@@H](CC(=O)O)C(N)=O [Example 63]	86 µM
Cc1cccc(NC(=O)N2Cc3[nH]c4ccccc4c3C[C@@H]2C(=O)N[C@@H](COCc2ccccc2)C(=O)N[C@@H](CC(=O)O)C(N)=O)c1 [Example 64]	29 µM
CC(C)C[C@H](NC(=O)[C@H]1Cc2c([nH]c3ccccc23)CN1C(=O)Nc1cccc(F)c1)C(=O)N[C@@H](CC(=O)O)C(N)=O [Example 65]	> 100 µM
CC(C)C[C@H](NC(=O)[C@H]1Cc2c([nH]c3ccccc23)CN1C(=O)Nc1ccc(Cl)c(Cl)c1)C(=O)N[C@@H](CC(=O)O)C(N)=O [Example 66]	24 µM
